# Source: US12036197B2, “Composition for improving bioavailability of drugs” (priority 2019, dated 2024)
# Where a SMILES comes first, the peptide text is derived from it. Bridges are numbered along the chain shown (N, C = ends). [ ]: non-standard residue; d: D form.
# Legend:
# [1] = PK test for small-intestinal administration of Bivalirudin (ELISA); assay type: in vivo; details: SD rats
# From the text: (§1) Laboratory Animals: Adult Male SD Rats.
# (§2) The plasma was collected and subjected to quick freezing.
# [2] = PK test for small-intestinal administration of Thymosin alpha-1 (ELISA); assay type: in vivo; details: SD rats
# From the text: as §1, §2
# [3] = PK test for small-intestinal administration of Teriparatide (ELISA); assay type: in vivo; details: SD rats
# From the text: as §1, §2
# [4] = PK test for small-intestinal administration of Vasopressin (ELISA); assay type: in vivo; details: SD rats
# From the text: as §1, §2
# [5] = PK test for small-intestinal administration of Teduglutide (ELISA); assay type: in vivo; details: SD rats
# From the text: The composition of the present invention: Tween 80, Carbomer 910, carboxymethyl Chitosan, and Sodium Tartrate, in a weight ratio of 25:8:8:80.
# as §1, §2
# [6] = PK test for small-intestinal administration of Growth Hormone (ELISA); assay type: in vivo; details: SD rats
# From the text: as §1, §2
# [7] = PK test for small-intestinal administration of Octreotide (ELISA); assay type: in vivo; details: SD rats
# From the text: as §1, §2
# in vivo [8] = assay: in vivo
# From the text: as §1, §2
# [9] = PK test for small-intestinal administration of Mecasermin (ELISA); assay type: in vivo; details: SD rats
# From the text: as §1, §2
# in vivo [10] = assay: in vivo; design: species or system SD rats; details: male, SD, rat
# From the text: The composition of the present invention: polyethylene glycol 4000, carbomer, chitosan oligosaccharide, and citric acid, in a weight ratio of 19:6:6:60.
# as §1, §2
# in vivo [11] = details: male, SD, rat
# [12] = PK test for small-intestinal administration of rInsulin (ELISA); assay type: in vivo; details: SD rats; small-intestinal administration at 200 μg/kg without composition
# From the text: as §1, §2
# [13] = PK test for small-intestinal administration of Oxytocin (ELISA); assay type: in vivo; details: SD rats
# From the text: as §1, §2
# [14] = PK test for small-intestinal administration of ACTH (ELISA); assay type: in vivo; details: SD rats
# From the text: as §1, §2
# [15] = PK test for small-intestinal administration of Gramicidin (ELISA); assay type: in vivo; details: SD rats
# From the text: as §1, §2
# [16] = small-intestinal administration at 200 μg/kg without composition
# [17] = rat, in vivo, ei 200 μg/kg with composition sodium lauryl sulfate, carbomer, chitosan, sodium citrate 20:6.5:6.5:65 (1:5), vs iv 1 μg/kg
molecule,measurement,setting,value
CC[C@H](C)[C@H](NC(=O)[C@H](CCC(=O)O)NC(=O)[C@H](CCC(=O)O)NC(=O)[C@H](Cc1ccccc1)NC(=O)[C@H](CC(=O)O)NC(=O)CNC(=O)[C@H](CC(N)=O)NC(=O)CNC(=O)CNC(=O)CNC(=O)CNC(=O)[C@@H]1CCCN1C(=O)[C@H](CCCNC(=N)N)NC(=O)[C@@H]1CCCN1C(=O)[C@H](N)Cc1ccccc1)C(=O)N1CCC[C@H]1C(=O)N[C@@H](CCC(=O)O)C(=O)N[C@@H](CCC(=O)O)C(=O)N[C@@H](Cc1ccc(O)cc1)C(=O)N[C@@H](CC(C)C)C(=O)O [Bivalirudin],blood concentration,[1]; [16],lower than the detection limit of ELISA
same,bioavailability,"[1]; rat, in vivo, ei 200 μg/kg with composition sodium lauryl sulfate, carbomer, chitosan, citric acid 19:6.5:7:67 (1:5), vs iv 1 μg/kg",1.63%
CC[C@H](C)[C@H](NC(=O)[C@H](CCC(=O)O)NC(=O)[C@H](CO)NC(=O)[C@H](CO)NC(=O)[C@@H](NC(=O)[C@H](CC(=O)O)NC(=O)[C@@H](NC(=O)[C@H](C)NC(=O)[C@H](C)NC(=O)[C@H](CC(=O)O)NC(=O)[C@H](CO)NC(C)=O)C(C)C)[C@@H](C)O)C(=O)N[C@H](C(=O)N[C@H](C(=O)N[C@@H](CCCCN)C(=O)N[C@@H](CC(=O)O)C(=O)N[C@@H](CC(C)C)C(=O)N[C@@H](CCCCN)C(=O)N[C@@H](CCC(=O)O)C(=O)N[C@@H](CCCCN)C(=O)N[C@@H](CCCCN)C(=O)N[C@@H](CCC(=O)O)C(=O)N[C@H](C(=O)N[C@H](C(=O)N[C@@H](CCC(=O)O)C(=O)N[C@@H](CCC(=O)O)C(=O)N[C@@H](C)C(=O)N[C@@H](CCC(=O)O)C(=O)N[C@@H](CC(N)=O)C(=O)O)C(C)C)C(C)C)[C@@H](C)O)[C@@H](C)O [Thymosin alpha-1] (Ac-SDAAVDTSSEITTKDLKEKKEVVEEAEN-OH),blood concentration,[2]; [16],lower than the detection limit of ELISA
same,bioavailability,[2]; [17],0.65%
CC[C@H](C)[C@H](NC(=O)[C@H](CCC(=O)O)NC(=O)[C@H](CO)NC(=O)[C@@H](NC(=O)[C@@H](N)CO)C(C)C)C(=O)N[C@@H](CCC(N)=O)C(=O)N[C@@H](CC(C)C)C(=O)N[C@@H](CCSC)C(=O)N[C@@H](Cc1cnc[nH]1)C(=O)N[C@@H](CC(N)=O)C(=O)N[C@@H](CC(C)C)C(=O)NCC(=O)N[C@@H](CCCCN)C(=O)N[C@@H](Cc1cnc[nH]1)C(=O)N[C@@H](CC(C)C)C(=O)N[C@@H](CC(N)=O)C(=O)N[C@@H](CO)C(=O)N[C@@H](CCSC)C(=O)N[C@@H](CCC(=O)O)C(=O)N[C@@H](CCCN=C(N)N)C(=O)N[C@H](C(=O)N[C@@H](CCC(=O)O)C(=O)N[C@@H](Cc1c[nH]c2ccccc12)C(=O)N[C@@H](CC(C)C)C(=O)N[C@@H](CCCN=C(N)N)C(=O)N[C@@H](CCCCN)C(=O)N[C@@H](CCCCN)C(=O)N[C@@H](CC(C)C)C(=O)N[C@@H](CCC(N)=O)C(=O)N[C@@H](CC(=O)O)C(=O)N[C@H](C(=O)N[C@@H](Cc1cnc[nH]1)C(=O)N[C@@H](CC(N)=O)C(=O)N[C@@H](Cc1ccccc1)C(=O)O)C(C)C)C(C)C [Teriparatide],blood concentration,[3]; [16],lower than the detection limit of ELISA
same,bioavailability,"[3]; male, rat, plasma, ei 200 μg/kg with composition sodium lauryl sulfate, carbomer, chitosan, sodium citrate 20:6.5:6.5:65 (1:5), vs iv 1 μg/kg",2.08%
NC(=O)CC[C@@H]1NC(=O)[C@H](Cc2ccccc2)NC(=O)[C@H](Cc2ccc(O)cc2)NC(=O)[C@@H](N)CSSC[C@@H](C(=O)N2CCC[C@H]2C(=O)N[C@@H](CCCN=C(N)N)C(=O)NCC(N)=O)NC(=O)[C@H](CC(N)=O)NC1=O [Vasopressin],blood concentration,[4]; [16],lower than the detection limit of ELISA
same,bioavailability,"[4]; male, rat, plasma, ei 200 μg/kg with composition sodium lauryl sulfate, carbomer, chitosan, sodium citrate 23:8:7.5:80 (1:5), vs iv 1 μg/kg",1.81%
CC[C@H](C)[C@H](NC(=O)[C@H](Cc1ccccc1)NC(=O)[C@H](CC(=O)O)NC(=O)[C@H](CCCNC(=N)N)NC(=O)[C@H](C)NC(=O)[C@H](C)NC(=O)[C@H](CC(C)C)NC(=O)[C@H](CC(N)=O)NC(=O)[C@H](CC(=O)O)NC(=O)[C@H](CC(C)C)NC(=O)[C@@H](NC(=O)[C@@H](NC(=O)[C@H](CC(N)=O)NC(=O)[C@H](CCSC)NC(=O)[C@H](CCC(=O)O)NC(=O)[C@H](CC(=O)O)NC(=O)[C@H](CO)NC(=O)[C@H](Cc1ccccc1)NC(=O)[C@H](CO)NC(=O)CNC(=O)[C@H](CC(=O)O)NC(=O)CNC(=O)[C@@H](N)Cc1c[nH]cn1)[C@@H](C)O)[C@@H](C)CC)C(=O)N[C@@H](CC(N)=O)C(=O)N[C@@H](Cc1c[nH]c2ccccc12)C(=O)N[C@@H](CC(C)C)C(=O)N[C@H](C(=O)N[C@@H](CCC(N)=O)C(=O)N[C@H](C(=O)N[C@@H](CCCCN)C(=O)N[C@H](C(=O)N[C@H](C(=O)N[C@@H](CC(=O)O)C(=O)O)[C@@H](C)O)[C@@H](C)CC)[C@@H](C)O)[C@@H](C)CC [Teduglutide],blood concentration,[5]; [16],lower than the detection limit of ELISA
same,bioavailability,"[5]; male, rat, plasma, ei 200 μg/kg with composition Tween 80, Carbomer 910, carboxymethyl Chitosan, Sodium Tartrate 25:8:8:80 (1:5), vs iv 1 μg/kg",2.13%
Growth Hormone: Growth Hormone (rhGH),bioavailability of small-intestinal administration,"[6]; ei 200 μg/kg with composition sodium lauryl sulfate, carbomer, chitosan, sodium citrate 20:6.5:6.5:65 (1:5), vs iv 1 μg/kg",0.32%
same,blood concentration,[6]; [16],lower than the detection limit of ELISA
C[C@@H](O)[C@@H]1NC(=O)[C@H](CCCCN)NC(=O)[C@@H](Cc2c[nH]c3ccccc23)NC(=O)[C@H](Cc2ccccc2)NC(=O)[C@@H](NC(=O)[C@H](N)Cc2ccccc2)CSSC[C@@H](C(=O)N[C@H](CO)[C@@H](C)O)NC1=O [Octreotide],blood concentration,[7]; [16],lower than the detection limit of ELISA
same,bioavailability,"[7]; male, rat, plasma, ei 200 μg/kg with composition sodium lauryl sulfate, carbomer, chitosan, sodium citrate 21:7:6:69 (1:5), vs iv 1 μg/kg",1.71%
CC(C)C[C@H](NC(=O)CNC(=O)[C@H](Cc1ccc(O)cc1)NC(=O)[C@H](CO)NC(=O)[C@H](Cc1c[nH]c2ccccc12)NC(=O)[C@H](Cc1cnc[nH]1)NC(=O)[C@@H]1CCC(=O)N1)C(=O)N[C@@H](CCCNC(=N)N)C(=O)N1CCC[C@H]1C(=O)NCC(N)=O [Gonadorelin],blood concentration,"in vivo [8]; SD rats, small-intestinal administration at 200 μg/kg without composition",lower than the detection limit of ELISA
same,bioavailability,"in vivo [8]; male, SD, rat, plasma, 200 μg/kg",1.58%
Mecasermin,bioavailability of small-intestinal administration,"[9]; ei 200 μg/kg with composition sodium lauryl sulfate, carbomer, chitosan, sodium citrate 21:6:7:65 (1:5), vs iv 1 μg/kg",1.38%
same,blood concentration,[9]; [16],lower than the detection limit of ELISA
CCNC(=O)[C@@H]1CCCN1C(=O)[C@H](CCCNC(=N)N)NC(=O)[C@H](CC(C)C)NC(=O)[C@@H](CC(C)C)NC(=O)[C@H](Cc1ccc(O)cc1)NC(=O)[C@H](CO)NC(=O)[C@H](Cc1c[nH]c2ccccc12)NC(=O)[C@H](Cc1c[nH]cn1)NC(=O)[C@@H]1CCC(=O)N1 [Leuprolide],bioavailability,in vivo [10],1.32%
CC(C)[C@@H]1NC(=O)[C@H](CCCCN)NC(=O)[C@@H](Cc2c[nH]c3ccccc23)NC(=O)[C@H](Cc2ccc(O)cc2)NC(=O)[C@@H](NC(=O)[C@H](N)Cc2ccccc2)CSSC[C@@H](C(=O)N[C@@H](Cc2c[nH]c3ccccc23)C(N)=O)NC1=O [Vapreotide] (H-[dF]CY[dW]KVCW-NH2; disulfide 2-7),bioavailability,in vivo [11],1.69%
rInsulin: Recombinant Insulin (rInsulin),blood concentration,[12],lower than the detection limit of ELISA
CC[C@H](C)[C@@H]1NC(=O)[C@H](Cc2ccc(O)cc2)NC(=O)[C@@H](N)CSSC[C@@H](C(=O)N2CCC[C@H]2C(=O)N[C@@H](CC(C)C)C(=O)NCC(N)=O)NC(=O)[C@H](CC(N)=O)NC(=O)[C@H](CCC(N)=O)NC1=O [Oxytocin],blood concentration,[13]; [16],lower than the detection limit of ELISA
same,bioavailability,"[13]; male, rat, plasma, ei 200 μg/kg with composition sodium lauryl sulfate, carbomer 934, water-soluble chitosan, disodium edetate 24:7.5:7:75 (1:5), vs iv 1 μg/kg",2.58%
CSCC[C@H](NC(=O)[C@H](CO)NC(=O)[C@H](Cc1ccc(O)cc1)NC(=O)[C@@H](N)CO)C(=O)N[C@@H](CCC(=O)O)C(=O)N[C@@H](Cc1cnc[nH]1)C(=O)N[C@@H](Cc1ccccc1)C(=O)N[C@@H](CCCNC(=N)N)C(=O)N[C@@H](Cc1c[nH]c2ccccc12)C(=O)NCC(=O)N[C@@H](CCCCN)C(=O)N1CCC[C@H]1C(=O)N[C@H](C(=O)NCC(=O)N[C@@H](CCCCN)C(=O)N[C@@H](CCCCN)C(=O)N[C@@H](CCCNC(=N)N)C(=O)N[C@@H](CCCNC(=N)N)C(=O)N1CCC[C@H]1C(=O)N[C@H](C(=O)N[C@@H](CCCCN)C(=O)N[C@H](C(=O)N[C@@H](Cc1ccc(O)cc1)C(=O)N1CCC[C@H]1C(=O)N[C@@H](CC(N)=O)C(=O)NCC(=O)N[C@@H](C)C(=O)N[C@@H](CCC(=O)O)C(=O)N[C@@H](CC(=O)O)C(=O)N[C@@H](CCC(=O)O)C(=O)N[C@@H](CO)C(=O)N[C@@H](C)C(=O)N[C@@H](CCC(=O)O)C(=O)N[C@@H](C)C(=O)N[C@@H](Cc1ccccc1)C(=O)N1CCC[C@H]1C(=O)N[C@@H](CC(C)C)C(=O)N[C@@H](CCC(=O)O)C(=O)N[C@@H](Cc1ccccc1)C(=O)O)C(C)C)C(C)C)C(C)C [ACTH] (H-SYSMEHFRWGKPVGKKRRPVKVYPNGAEDESAEAFPLEF-OH),blood concentration,[14]; [16],lower than the detection limit of ELISA
same,bioavailability,[14]; [17],1.86%
Gramicidin D,bioavailability of small-intestinal administration,"[15]; ei 200 μg/kg with composition sodium lauryl sulfate, carbomer, chitosan, sodium citrate 19:6:6:60 (1:5), vs iv 1 μg/kg",1.18%
same,blood concentration,[15]; [16],lower than the detection limit of ELISA
